Activity calls are given as the source filed them. The calls are words filed in the database; no cut-off is given here.
Experiments:
Acetylcholinesterase = target: T1, Acetylcholinesterase (Rattus norvegicus, UniProt P37136)
T1 sequence (P37136 whole entry): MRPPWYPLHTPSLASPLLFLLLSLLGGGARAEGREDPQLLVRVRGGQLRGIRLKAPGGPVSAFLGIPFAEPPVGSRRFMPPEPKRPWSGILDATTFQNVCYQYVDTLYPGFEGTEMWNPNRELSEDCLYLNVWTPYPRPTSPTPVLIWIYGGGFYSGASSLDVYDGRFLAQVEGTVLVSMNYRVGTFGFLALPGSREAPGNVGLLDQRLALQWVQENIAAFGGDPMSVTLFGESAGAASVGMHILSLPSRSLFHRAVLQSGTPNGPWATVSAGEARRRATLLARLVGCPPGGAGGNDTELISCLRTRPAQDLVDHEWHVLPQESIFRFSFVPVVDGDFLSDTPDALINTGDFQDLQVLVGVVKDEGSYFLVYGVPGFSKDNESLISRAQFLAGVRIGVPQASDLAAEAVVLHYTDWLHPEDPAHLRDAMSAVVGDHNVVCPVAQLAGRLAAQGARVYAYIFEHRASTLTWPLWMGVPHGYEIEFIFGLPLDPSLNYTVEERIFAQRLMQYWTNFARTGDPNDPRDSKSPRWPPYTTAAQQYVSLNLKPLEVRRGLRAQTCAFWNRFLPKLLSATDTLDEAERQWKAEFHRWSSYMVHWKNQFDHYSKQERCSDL
Description: Inhibition of AChE in Sprague-Dawley rat cortices using acetylthiocholine iodide as substrate by Ellman's method

tissue or blood = details: Rattus norvegicus, Sprague-Dawley, Serum
Description: Inhibition of BuChE in Sprague-Dawley rat serum by Ellman's method

Rattus norvegicus = species on record: Rattus norvegicus; test: Inhibition of BuChE in Sprague-Dawley rat serum at 1 mM by Ellman's method; type: cell-free

Q: With COc1cc2c(cc1OC)C(=O)C(CCCCCCCN[C@H]1CCCc3[nH]c(=O)ccc31)C2 (mixture of isomers) as the molecule, how does the IC50 (Acetylcholinesterase) read?
A: 1.86 µM

Q: What about the IC50 (tissue or blood) of the same molecule?
A: 413 µM

Q: Which IC50 (Acetylcholinesterase) does the source give for COc1ccc(C(=O)OCCCCCCCN[C@H]2CCCc3[nH]c(=O)ccc32)cc1OC here?
A: 8.2 µM

Q: What about the IC50 (tissue or blood) of the same molecule?
A: 194 µM

Q: Which IC50 (Acetylcholinesterase) does the source give for COc1ccc(C(=O)OCCCCN[C@H]2CCCc3[nH]c(=O)ccc32)cc1OC here?
A: 4.1 µM

Q: What about the IC50 (tissue or blood) of the same molecule?
A: 15 µM

Q: For COc1cc2c(cc1OC)C(=O)C(CCCCCN[C@H]1CCCc3[nH]c(=O)ccc31)C2 (mixture of isomers), which IC50 (Acetylcholinesterase) is on record?
A: 0.187 µM

Q: What about the inhibition (Rattus norvegicus) of the same molecule?
A: inactive

Q: Which IC50 (Acetylcholinesterase) does the source give for COc1cc2c(cc1OC)C(=O)C(CCCN[C@H]1CCCc3[nH]c(=O)ccc31)C2 (mixture of isomers) here?
A: 41 µM

Q: What about the inhibition (Rattus norvegicus) of the same molecule?
A: inactive

Q: For COc1cc2c(cc1OC)C(=O)C(CCCCN[C@H]1CCCc3[nH]c(=O)ccc31)C2 (mixture of isomers), which IC50 (Acetylcholinesterase) is on record?
A: 0.009 µM

Q: What about the inhibition (Rattus norvegicus) of the same molecule?
A: inactive

Q: Which IC50 (Acetylcholinesterase) does the source give for COc1ccc(OCCCCCN[C@H]2CCCc3[nH]c(=O)ccc32)cc1OC here?
A: 0.59 µM

Q: And the IC50 (tissue or blood)?
A: 42 µM

Q: For COc1ccc(C(=O)OCCCCCN[C@H]2CCCc3[nH]c(=O)ccc32)cc1OC, which IC50 (Acetylcholinesterase) is on record?
A: 7.2 µM

Q: What about the IC50 (tissue or blood) of the same molecule?
A: 460 µM

Q: What does the source list for C/C=C1\[C@H]2C=C(C)C[C@]1(N)c1ccc(=O)[nH]c1C2 [HUPERZINE A]?
A: IC50 (Acetylcholinesterase): 0.065 µM; IC50 (tissue or blood): 74 µM

Q: What does the source list for COc1cc2c(cc1OC)C(=O)C(CCCCCCCCCN[C@H]1CCCc3[nH]c(=O)ccc31)C2 (mixture of isomers)?
A: IC50 (Acetylcholinesterase): 2.6 µM; IC50 (tissue or blood): 678 µM

Q: For COc1ccc(C(=O)OCCCN[C@H]2CCCc3[nH]c(=O)ccc32)cc1OC, which IC50 (Acetylcholinesterase) is on record?
A: 162 µM

Q: And the IC50 (tissue or blood)?
A: 860 µM

Q: With COc1cc2c(cc1OC)C(=O)C(CCCCN[C@@H]1CCCc3[nH]c(=O)ccc31)C2 (mixture of isomers) as the molecule, how does the IC50 (Acetylcholinesterase) read?
A: 0.53 µM

Q: What about the inhibition (Rattus norvegicus) of the same molecule?
A: inactive

Q: For COc1ccc(OCCCCCCN[C@H]2CCCc3[nH]c(=O)ccc32)cc1OC, which IC50 (Acetylcholinesterase) is on record?
A: 3.95 µM

Q: And the IC50 (tissue or blood)?
A: 17.7 µM

Q: Which IC50 (Acetylcholinesterase) does the source give for COc1ccc(C(=O)NCCCCCN[C@H]2CCCc3[nH]c(=O)ccc32)cc1OC here?
A: 12 µM

Q: What about the IC50 (tissue or blood) of the same molecule?
A: 33 µM

Q: With COc1cc2c(cc1OC)C(=O)C(CCCCCCN[C@H]1CCCc3[nH]c(=O)ccc31)C2 (mixture of isomers) as the molecule, how does the IC50 (Acetylcholinesterase) read?
A: 0.037 µM

Q: What about the inhibition (Rattus norvegicus) of the same molecule?
A: inactive

Q: Which IC50 (Acetylcholinesterase) does the source give for COc1ccc(C(=O)NCCCN[C@H]2CCCc3[nH]c(=O)ccc32)cc1OC here?
A: 88 µM

Q: What about the IC50 (tissue or blood) of the same molecule?
A: 139 µM

Q: For COc1ccc(C(=O)OCCCCCCCCCN[C@H]2CCCc3[nH]c(=O)ccc32)cc1OC, which IC50 (Acetylcholinesterase) is on record?
A: 9.67 µM

Q: And the IC50 (tissue or blood)?
A: 308 µM

Reference: ChEMBL document CHEMBL2321689, “Design, synthesis and evaluation of novel heterodimers of donepezil and huperzine fragments as acetylcholinesterase inhibitors” (Bioorg Med Chem, 2013)
